Measurements reported in patent US10151698B2, “Selection by compartmentalized screening” (Medical Research Council, priority 2003, dated 2018).

How the values were obtained:
[1] = Compartmentalisation of small molecules in water-in-fluorocarbon emulsions (epifluorescence microscopy); type: physicochemical; conditions: water-in-perfluorooctyl bromide emulsions mixed by vortexing; 24 hours after mixing
Protocol: FIG. 3. Compartmentalisation of small molecules in water-in-fluorocarbon emulsions. Water-in-perfluorooctyl bromide emulsions were made containing texas red (1 mM) and calcein (1 mM) in the aqueous phase by homogenisation as described in example 9. The two emulsions were mixed by vortexing and imaged by epifluorescence microscopy after 24 hours. No exchange of texas-red (red fluorescence) and calcein (green fluorescence) between microdroplets could be observed.
Water-in-fluorocarbon emulsions containing 95% (v/v) perfluorooctyl bromide, 5% (v/v) phosphate buffered saline containing the molecule of interest in solution, and 2% (w/v) C8F17C11H22OP(O)[N(CH2CH2)2O]2 (F8H11DMP) as surfactant were formed essentially as (Sadtler et al., 1996) by extrusion (15 times) through 14 μm filters (Osmonics) or by homogenising for 5 min at 25,000 r.p.m. using an Ultra-Turrax T8 Homogenizer (IKA) with a 5 mm dispersing tool. Emulsions were made containing a series of small fluorescent molecules dissolved in the aqueous phase at concentrations from […] to 2 mM. These molecules, including calcein, texas red, fluorescein, coumarin 102, 7-hydroxycoumarin-3-carboxylic acid and 7-diethylamino-4-methyl coumarin (coumarin 1), had molecular weights from 203 to 625 Da and Log P values—calculated using SRC's Log Kow/KowWin Program (Meylan and Howard, 1995)—ranging from −0.49 to 4.09. […]

[2] = target: T1, human recombinant PTPIB, residues 1-322 (Homo sapiens, UniProt P18031); experiment: Screening for PTPIB inhibitors using microcapsules in microfluidic systems (DiFMUP, epifluorescence microscope); type: biochemical; conditions: Example 5; 100 μM compound solution; PTPIB 50 mU/ml; fused microcapsules run up to 2 min
T1 construct: human recombinant PTPIB, residues 1-322; purchased Biomol Research Laboratories, Inc
T1 sequence (P18031 1-322): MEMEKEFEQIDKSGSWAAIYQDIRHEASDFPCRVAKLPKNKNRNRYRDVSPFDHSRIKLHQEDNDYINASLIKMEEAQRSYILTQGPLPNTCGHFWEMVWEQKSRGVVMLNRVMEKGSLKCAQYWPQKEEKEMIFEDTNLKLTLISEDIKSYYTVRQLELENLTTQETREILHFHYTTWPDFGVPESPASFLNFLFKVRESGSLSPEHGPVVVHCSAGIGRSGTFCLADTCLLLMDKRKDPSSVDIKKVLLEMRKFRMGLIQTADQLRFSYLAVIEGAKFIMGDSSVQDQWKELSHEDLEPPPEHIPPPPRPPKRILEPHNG
Protocol: Microchannels are fabricated with rectangular cross-sections using rapid prototyping in poly(dimethylsiloxane) (PDMS) (McDonald and Whitesides, 2002) and rendered hydrophobic as (Song and Ismagilov, 2003). Syringe pumps were used to drive flows (Harvard Apparatus PHD 2000 Infusion pumps). For aqueous solutions, 50 μl Hamilton Gastight syringes (1700 series, TLL) with removeable needles of 27-gaugeare used with 30-gauge Teflon tubing (Weico Wire and Cable). For the carrier fluid, 1 ml Hamilton Gastight syringes (1700 series, TLL) are used with 30-gauge Teflon needles with one hub from Hamilton (Song and Ismagilov, 2003). The carrier fluid is 9% (v/v) C6F11C2H4OH in perfluorodecaline (PFD) (Song et al., 2003). All water-soluble reagents were dissolved in (25 mM HEPES, pH 7.4, 125 mM NaCl, 1 mM EDTA), a buffer compatible with PTPIB activity.
These three steams are continuously injected into a flow of water immiscible fluorocarbon carrier fluid (9% (v/v) C6FπC2H OH in PFD). Inlet channels for the aqueous solutions are […] wide and channel for PFD is 28 μm wide. […]
The channel immediately downstream of the point of droplet formation is winding with a peak to peak distance of 50 μm for a distance of 1 mm. […] Fluorescence of the microcapsules due to production of DiFMU (excitation/emmission maxima 358/452 nm; blue fluorescence) is measured using an epifluorescence microscope.

[3] = target: T2, PTPIB (Homo sapiens, UniProt P18031); conditions: Johnson et al., 2002; cited from earlier work
T2 sequence (P18031 1-435): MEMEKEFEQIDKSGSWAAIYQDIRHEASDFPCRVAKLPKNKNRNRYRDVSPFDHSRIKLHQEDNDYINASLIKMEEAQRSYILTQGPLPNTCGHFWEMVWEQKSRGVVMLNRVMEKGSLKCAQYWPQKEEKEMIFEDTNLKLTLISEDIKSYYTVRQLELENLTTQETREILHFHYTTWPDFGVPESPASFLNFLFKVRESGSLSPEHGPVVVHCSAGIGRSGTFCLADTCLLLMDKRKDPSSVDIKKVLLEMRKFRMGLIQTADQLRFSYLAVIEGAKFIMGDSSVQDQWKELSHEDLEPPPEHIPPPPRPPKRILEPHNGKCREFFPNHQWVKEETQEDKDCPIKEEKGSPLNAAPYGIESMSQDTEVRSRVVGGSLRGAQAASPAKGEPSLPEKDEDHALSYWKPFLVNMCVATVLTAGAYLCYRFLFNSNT

[4] = target: T1, human recombinant PTPIB, residues 1-322; experiment: Screening for PTPIB inhibitors in water-in-oil emulsion microcapsules with fluorogenic substrate DiFMUP, multi-colour flow cytometry; type: biochemical; conditions: 100 μM compound, 37° C. for 30 min
Protocol: The syringes are fitted into the openings on both sides of the filter holder of the extruder. The compound mix is forced through the filter holder into the alternate syringe containing the decane/surfactant mix and directly forced back into the original syringe to complete one round of extrusion. In total, 7.5 rounds of extrusion are completed. The filled syringe is removed from the extruder and emptied into a 1.7 ml Axygen tube (# MCT-175-C, Axygen Scientific, Inc., Union City, Calif., USA).
The two emulsions are mixed by vortexing in ratios varying from 1:1000 to 1:1 (compound 2 emulsion: hydrocinnamic acid emulsion) and incubated at 37° C. for 30 min. Inhibitors reduce the amount of non-fluorescent substrate (DiFMUP) converted to the dephosphorylated product (DiFMU; excitation/emmission maxima 358/452 nm; blue fluorescence). […]
The double emulsions are then analysed by multi-colour flow cytometery using a MoFlo (Cytomation) flow cytometer. […]
50 μl of each of the compound mixtures is added sequentially to a solution of 1% (w/v) Span 60 and 1% (w/v) cholesterol in decane, made and held at 37° C. as example 1, whilst homogenising at 25,000 r.p.m. using an Ultra-Turrax T8 Homogenizer (IKA) with a 5 mm dispersing tool. […] Inhibitors reduce the amount of non-fluorescent substrate (DiFMUP) converted to the dephosphorylated product (DiFMU; excitation/emmission maxima 358/452 nm; blue fluorescence). […]

Molecule	exchange between microdroplets/compartments [1]	fluorescence of the microcapsules due to production of DiFMU [2]	PTPIB inhibitor or not [3]	blue fluorescence of microcapsules (DiFMU from dephosphorylation of DiFMUP by PTPIB) ([4]; Example 1, two emulsions mixed 1:1000 to 1:1)	blue fluorescence of microcapsules (DiFMU from dephosphorylation of DiFMUP by PTPIB) ([4]; Example 2, mixtures added sequentially to one oil phase)
texas red	No exchange				
O=C(O)CCc1ccccc1 [hydrocinnamic acid]		exhibiting blue fluorescence	not a PTPIB inhibitor	also show blue fluorescence	also show blue fluorescence
O=C(O)CN(CC(=O)O)Cc1cc2c(cc1O)Oc1cc(O)c(CN(CC(=O)O)CC(=O)O)cc1C21OC(=O)c2ccccc21 [calcein]	No exchange				
